Experimental data: patent publication US12125561B2, “Determination of JAK-STAT3 pathway activity using unique combination of target genes” (InnoSIGN B.V., priority 2017, dated 2024)

Key:
Format in all cases: cell-based
[1] = system: JAK-STAT3 cellular signaling pathway in epithelial cells from HaCaT cell lines; assay: JAK-STAT3 pathway activity prediction, lung model, data set GSE32975; details: EGF vs unstimulated control; gefitinib samples in group 6 and group 7; FIG. 11
From the text: Epithelial cells from HaCaT cell lines were stimulated with epidermal growth factor (EGF) in data set GSE32975. Each group represents one replica from the cell line.

[2] = system: JAK-STAT3 cellular signaling pathway in Ishikawa H cells (derived endometrial carcinomas); assay: JAK-STAT3 pathway activity prediction, lung model, data set GSE20854; details: FIG. 12
Method: Ishikawa H cells (derived endometrial carcinomas) were dosed with either EGF (epidermal growth factor) or Iressa (gefitinib) for 12 or 24 hours in data set GSE20854.

[3] = system: JAK-STAT3 cellular signaling pathway in tamoxifen initiated, transformation inducible, breast cancer model system; assay: JAK-STAT3 pathway activity prediction, lung model, data set GSE64536; details: FIG. 15
From the text: (§1) Herein, an exemplary Bayesian network model as shown in FIG. 2 was used to model the transcriptional program of the JAK-STAT3 cellular signaling pathway in a simple manner. The model consists of three types of nodes: (a) a transcription factor (TF) element (with states “absent” and “present”) in a first layer 1; (b) target genes TG1, TG2, TGn (with states “down” and “up”) in a second layer 2, and; (c) measurement nodes linked to the expression levels of the target genes in a third layer 3. These can be microarray probesets PS1,1, PS1,2, PS1,3, PS2,1, PSn,1, PSn,m (with states “low” and “high”), as preferably used herein, but could also be other gene expression measurements such as RNAseq or RT-qPCR.
(§2) A suitable implementation of the mathematical model, herein, the exemplary Bayesian network model, is based on microarray data. The model describes (i) how the expression levels of the target genes depend on the activation of the TF element, and (ii) how probeset intensities, in turn, depend on the expression levels of the respective target genes. For the latter, probeset intensities may be taken from fRMA pre-processed Affymetrix HG-U133Plus2.0 microarrays, which are widely available from the Gene Expression Omnibus (GEO, www.ncbi.nlm.nih.gov/geo) and ArrayExpress (www.ebi.ac.uk/arrayexpress). […]

[4] = system: JAK-STAT3 cellular signaling pathway in Sez-4 cell line (cutaneous T-cell lymphoma); assay: JAK-STAT3 pathway activity prediction, blood model, data set GSE8685; details: cells starved of IL-2 for 16 hours, then IL-2 (200 U) resp. IL-15 (20 ng/mL); FIG. 16
Method: A Sez-4 cell line which was derived from a cutaneous T-cell lymphoma (data set GSE8685). […] IL-15 (20 ng/mL).

[5] = system: JAK-STAT3 cellular signaling pathway in EGFR mutant cells of lung cancer; assay: JAK-STAT3 pathway activity, lung Bayesian network model, calibration on data set GSE57156; details: calibration samples, group 1; DMSO-treated cells considered active; FIG. 9
From the text: Herein, available expression data sets of EGFR mutant cells of lung cancer from data set GSE57156 were used.
as §1
A suitable implementation of the mathematical model, herein, the exemplary Bayesian network model, is based on microarray data. The model describes (i) how the expression levels of the target genes depend on the activation of the TF element, and (ii) how probeset intensities, in turn, depend on the expression levels of the respective target genes. […]

[6] = system: JAK-STAT3 cellular signaling pathway in PC9 NSCLC cells; assay: JAK-STAT3 pathway activity prediction, lung model, data set GSE67051, PC9; details: PC 9, treated for 8 days, group 1 vs group 2; FIG. 13
From the text: as §1, §2

[7] = dosed for 12 hours, compared to undosed samples harvested at 12 hours
[8] = dosed for 24 hours, compared to undosed samples harvested at 24 hours

Compound: COc1cc2ncnc(Nc3ccc(F)c(Cl)c3)c2cc1OCCCN1CCOCC1 [gefitinib]
- predicted STAT3 pathway activity (odds that the TF element is present) [1]: decreased STAT3 pathway activity
- predicted STAT3 pathway activity (odds that the TF element is present) [2, 7]: decreased STAT3 pathway activity
- predicted STAT3 pathway activity (odds that the TF element is present) [2, 8]: decreased STAT3 pathway activity

Compound: CC/C(=C(\c1ccccc1)c1ccc(OCCN(C)C)cc1)c1ccccc1 [tamoxifen]
- predicted JAK-STAT3 activity of EtOH-treated cells compared to cells initiated with tamoxifen ([3]; 4 hours, group 1 vs group 3): higher
- predicted JAK-STAT3 activity of EtOH-treated cells compared to cells initiated with tamoxifen ([3]; 24 hours, group 2 vs group 4): higher

Compound: IL-15: cytokine added to IL-2 starved Sez-4 cells
- predicted JAK-STAT3 pathway status compared to the control group [4]: active

Compound: C#Cc1cccc(Nc2ncnc3cc(OCCOC)c(OCCOC)cc23)c1 [erlotinib]
- JAK-STAT3 pathway status of treated cells (odds that the TF element is present) [5]: JAK-STAT3 inactive
- predicted STAT3 activity of DMSO-treated cells compared to erlotinib-treated cells [6]: higher

Compound: epidermal growth factor (NSDSECPLSHDGYCLHDGVCMYIEALDKYACNCVVGYIGERCQYRDLKWWELR; Epidermal growth factor; UniProt P01133 971-1023, looked up) [EGF, epidermal growth factor (EGF)]
- predicted STAT3 pathway activity (odds that the TF element is present) [1]: higher STAT3 activity
- predicted STAT3 pathway activity (odds that the TF element is present) [2, 7]: higher STAT3 activity
- predicted STAT3 pathway activity (odds that the TF element is present) [2, 8]: higher STAT3 activity
